Source: the NIST ThermoML archive (doi:10.1021/je050223a)

How the values were obtained:
[1] = 101.33 kPa, Liquid
[2] = xn = mol fraction of the nth substance listed; conditions: 101.33 kPa, Liquid

C=C(C)C(=O)OCCO [2-hydroxyethyl 2-methyl-2-propenoate]
[1]
Conditions	mass density [kg/m3]	viscosity [mPa·s]
298.15 K	1067.1	5.784
308.15 K	1057.7	4.194
318.15 K	1048.6	3.181

C=C(C)C(=O)OCCO [2-hydroxyethyl 2-methyl-2-propenoate] + CCOCCC(=O)OCC
[2], x2 = 0
Conditions	mass density [kg/m3]	viscosity [mPa·s]
298.15 K	1067.1	5.784
308.15 K	1057.7	4.194
318.15 K	1048.6	3.181

C=C(C)C(=O)O [2-methyl-2-propenoic acid]
[1]
Conditions	mass density [kg/m3]	viscosity [mPa·s]
298.15 K	1009.5	1.267
308.15 K	999.4	1.078
318.15 K	989.2	0.945

C=C(C)C(=O)O [2-methyl-2-propenoic acid] + CCOCCC(=O)OCC
[2], x2 = 0
Conditions	mass density [kg/m3]	viscosity [mPa·s]
298.15 K	1009.5	1.267
308.15 K	999.4	1.078
318.15 K	989.2	0.945

C=C(C)C(=O)OCc1ccccc1 [benzyl methacrylate]
[1]
Conditions	mass density [kg/m3]	viscosity [mPa·s]
298.15 K	1034.7	2.302
308.15 K	1025.8	1.885
318.15 K	1017	1.58

C=C(C)C(=O)OCc1ccccc1 [benzyl methacrylate] + CCOCCC(=O)OCC
[2], x2 = 0
Conditions	mass density [kg/m3]	viscosity [mPa·s]
298.15 K	1034.7	2.302
308.15 K	1025.8	1.885
318.15 K	1017	1.58

CCCCO [butan-1-ol]
[1]
Conditions	mass density, 298.15 K [kg/m3]	mass density, 303.15 K [kg/m3]	mass density, 308.15 K [kg/m3]	mass density, 313.15 K [kg/m3]	viscosity, 298.15 K [mPa·s]	viscosity, 303.15 K [mPa·s]	viscosity, 308.15 K [mPa·s]	viscosity, 313.15 K [mPa·s]
Capillary tube (Ostwald / Ubbelohde) method	–	–	–	–	2.566	2.265	1.998	1.778
Pycnometric method	805.6	802.1	798	794.5	–	–	–	–

CCOCCC(=O)OCC [ethyl β-ethoxypropionate]
[1]
Conditions	mass density [kg/m3]	viscosity [mPa·s]
298.15 K	943.2	1.176
308.15 K	933.4	0.996
318.15 K	923.3	0.859

CCOCCC(=O)OCC [ethyl β-ethoxypropionate] + C=C(C)C(=O)O
[2]
Conditions	mass density, 298.15 K [kg/m3]	mass density, 308.15 K [kg/m3]	mass density, 318.15 K [kg/m3]	viscosity, 298.15 K [mPa·s]	viscosity, 308.15 K [mPa·s]	viscosity, 318.15 K [mPa·s]
x1 = 0.1	1000.5	990.7	980.6	1.349	1.139	0.986
x1 = 0.1999	992.4	982.7	972.8	1.425	1.198	1.028
x1 = 0.3	984.9	975.1	965.2	1.504	1.257	1.075
x1 = 0.4	978.1	968.3	958.4	1.551	1.293	1.103
x1 = 0.5	971.5	961.7	951.9	1.516	1.262	1.08
x1 = 0.6	965.3	955.6	945.7	1.439	1.211	1.029
x1 = 0.7	959.5	949.8	939.8	1.369	1.156	0.982
x1 = 0.8	954.1	944.4	934.4	1.313	1.108	0.944
x1 = 0.8999	948.5	938.9	929.1	1.243	1.049	0.899
x1 = 1	943.2	933.4	923.3	1.176	0.996	0.859

CCOCCC(=O)OCC [ethyl β-ethoxypropionate] + C=C(C)C(=O)OCCO
[2]
Conditions	mass density, 298.15 K [kg/m3]	mass density, 308.15 K [kg/m3]	mass density, 318.15 K [kg/m3]	viscosity, 298.15 K [mPa·s]	viscosity, 308.15 K [mPa·s]	viscosity, 318.15 K [mPa·s]
x1 = 0.1	1053	1043.6	1034.4	4.507	3.352	2.598
x1 = 0.2	1039.1	1029.6	1020.3	3.696	2.821	2.239
x1 = 0.3	1025.6	1016.1	1006.6	3.072	2.379	1.918
x1 = 0.4	1012.7	1003.1	993.5	2.503	1.98	1.611
x1 = 0.5	1000.2	990.5	980.8	2.156	1.731	1.425
x1 = 0.6	988.1	978.4	968.6	1.833	1.495	1.243
x1 = 0.6999	976.5	966.8	956.9	1.627	1.34	1.127
x1 = 0.8	965.2	955.5	945.6	1.417	1.181	1.007
x1 = 0.9	954.3	944.6	934.6	1.269	1.065	0.911
x1 = 1	943.2	933.4	923.3	1.176	0.996	0.859

CCOCCC(=O)OCC [ethyl β-ethoxypropionate] + C=C(C)C(=O)OCc1ccccc1
[2]
Conditions	mass density, 298.15 K [kg/m3]	mass density, 308.15 K [kg/m3]	mass density, 318.15 K [kg/m3]	viscosity, 298.15 K [mPa·s]	viscosity, 308.15 K [mPa·s]	viscosity, 318.15 K [mPa·s]
x1 = 0.1	1027	1017.9	1008.9	2.16	1.767	1.479
x1 = 0.2	1019.1	1009.9	1000.7	2.027	1.664	1.398
x1 = 0.3	1010.9	1001.5	992.1	1.91	1.571	1.323
x1 = 0.4	1002.3	992.7	983.2	1.795	1.48	1.247
x1 = 0.4999	993.4	983.7	974	1.681	1.391	1.173
x1 = 0.6	984.2	974.4	964.5	1.569	1.303	1.101
x1 = 0.7	974.7	964.8	954.7	1.457	1.215	1.029
x1 = 0.8	964.9	954.9	944.6	1.347	1.129	0.961
x1 = 0.9	954.3	944.3	934.1	1.242	1.047	0.899
x1 = 1	943.2	933.4	923.3	1.176	0.996	0.859
